Laboratory results: US20240360165A1, “INHIBITORS OF CYCLIN DEPENDENT KINASE 7 (CDK7)” (Syros Pharmaceuticals, Inc., priority 2016, published 2024)
Like-named read-outs stand apart in the source and are kept apart here.

Columns and labels:
[1] = target: CDK2/Cyclin E1 complex (Homo sapiens, UniProt P24941); test: CDK2 inhibition assay (Caliper/LabChip EZ Reader kinase assay); assay type: biochemical; conditions: Table 1, CDK2/Cyclin E1 0.5 nM, ATP 2 mM, 35 min at 27° C.
How it was run: (§1)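 Activity read as fluorescent peptide conversion on a LabChip EZ Reader. For CDK2/Cyclin E1 (0.5 nM), substrate was 5-FAM-CDK7tide (2 μM) with 2 mM MgCl2; for CDK9/Cyclin T1 (8 nM), 5-FAM-CDK9tide (2 μM) with 10 mM MgCl2.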

[2] = target: T1, CDK12 (aa686-1082)/Cyclin K complex (Homo sapiens, UniProt Q9NYV4); test: CDK12 inhibition assay (Caliper/LabChip EZ Reader kinase assay); assay type: biochemical; conditions: Table 1, CDK12 (aa686-1082)/Cyclin K 50 nM, ATP 2 mM, 3 hr at 27° C.
T1 construct: CDK12 (aa686-1082)/Cyclin K complex

[3] = tested on: A673 cells; test: Inhibition of proliferation of A673 cells (CyQUANT, 72 hour); assay type: cell-based, human; conditions: A673 cells, 72 hour, CyQUANT, read-out: Inhibition of Proliferation of A673 Cells (calculated IC50)
How it was run: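 Proliferation read-out by CyQUANT after a 72 h exposure, compounds spanning 4 μM–[…] in half-log steps. A673 cells cultured at 37° C under 5% CO2 in DMEM supplemented with 10% FBS plus 1 mM sodium pyruvate.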

[4] = tested on: HCC70 cells; test: Inhibition of proliferation of HCC70 cells (CyQUANT Direct Cell Proliferation Assay, 72 hour); assay type: cell-based, human; conditions: read-out: Inhibition of Proliferation of HCC70 Cells (calculated IC50)
How it was run: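 Human triple-negative breast cancer HCC70 cells cultured at 37° C, 5% CO2, with compound for 72 hour. Anti-proliferative effect read by CyQUANT Direct Cell Proliferation Assay. Dinaciclib, a CDK inhibitor analog and triptolide served as positive controls.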

[5] = target: CDK7/Cyclin H/MAT1 complex (Homo sapiens, UniProt P50613); test: CDK7 inhibition assay (Caliper/LabChip EZ Reader kinase assay); assay type: biochemical; conditions: Table 1, CDK7/Cyclin H/MAT1 6 nM, ATP 2 mM, 35 min at 27° C.
How it was run: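 A Perkin Elmer Caliper/LabChip EZ Reader (Waltham, MA) platform served as the basis for this CDK7 kinase inhibition assay. The work was carried out by Biortus Biosciences, located in Jiangyin, Jiangsu Province, P.R. of China. Each CDK studied had its own kinase assay, and compounds were evaluated for their ability to block CDK7 activity.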

[6] = target: CDK9/Cyclin T1 complex (Homo sapiens, UniProt P50750); test: CDK9 inhibition assay (Caliper/LabChip EZ Reader kinase assay); assay type: biochemical; conditions: Table 1, CDK9/Cyclin T1 8 nM, ATP 2 mM, 15 min at 27° C.
How it was run: as §1

T1 sequence (Q9NYV4 686-1082, species assumed): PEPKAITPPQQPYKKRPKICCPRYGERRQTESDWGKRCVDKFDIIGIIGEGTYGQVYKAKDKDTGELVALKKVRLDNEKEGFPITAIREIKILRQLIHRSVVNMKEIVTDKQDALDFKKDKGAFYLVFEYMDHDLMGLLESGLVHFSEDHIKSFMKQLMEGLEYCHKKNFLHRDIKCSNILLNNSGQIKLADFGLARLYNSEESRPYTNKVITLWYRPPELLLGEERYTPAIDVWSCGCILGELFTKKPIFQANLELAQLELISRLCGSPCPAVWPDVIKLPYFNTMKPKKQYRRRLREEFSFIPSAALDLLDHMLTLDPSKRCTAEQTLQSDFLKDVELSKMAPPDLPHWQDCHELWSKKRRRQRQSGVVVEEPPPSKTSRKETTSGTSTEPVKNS
T1 sequence (O75909 whole entry partner, species assumed, the tested form may be a part): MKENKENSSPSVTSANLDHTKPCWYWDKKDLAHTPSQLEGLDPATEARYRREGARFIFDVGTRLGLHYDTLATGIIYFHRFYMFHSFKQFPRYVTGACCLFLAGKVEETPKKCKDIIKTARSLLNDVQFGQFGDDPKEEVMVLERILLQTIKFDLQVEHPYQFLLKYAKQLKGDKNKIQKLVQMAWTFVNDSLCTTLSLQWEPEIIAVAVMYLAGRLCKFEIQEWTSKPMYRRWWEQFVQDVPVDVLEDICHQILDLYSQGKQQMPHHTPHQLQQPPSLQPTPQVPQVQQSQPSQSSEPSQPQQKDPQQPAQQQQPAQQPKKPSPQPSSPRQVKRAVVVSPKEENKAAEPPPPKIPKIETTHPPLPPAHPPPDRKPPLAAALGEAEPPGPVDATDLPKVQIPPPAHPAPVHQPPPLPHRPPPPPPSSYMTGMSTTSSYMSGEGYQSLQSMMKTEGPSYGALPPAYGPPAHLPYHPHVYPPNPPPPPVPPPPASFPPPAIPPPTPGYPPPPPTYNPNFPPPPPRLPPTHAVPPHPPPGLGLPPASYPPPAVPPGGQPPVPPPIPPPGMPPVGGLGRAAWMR
Chain of CDK9/Cyclin T1 complex (P50750 whole entry, species assumed): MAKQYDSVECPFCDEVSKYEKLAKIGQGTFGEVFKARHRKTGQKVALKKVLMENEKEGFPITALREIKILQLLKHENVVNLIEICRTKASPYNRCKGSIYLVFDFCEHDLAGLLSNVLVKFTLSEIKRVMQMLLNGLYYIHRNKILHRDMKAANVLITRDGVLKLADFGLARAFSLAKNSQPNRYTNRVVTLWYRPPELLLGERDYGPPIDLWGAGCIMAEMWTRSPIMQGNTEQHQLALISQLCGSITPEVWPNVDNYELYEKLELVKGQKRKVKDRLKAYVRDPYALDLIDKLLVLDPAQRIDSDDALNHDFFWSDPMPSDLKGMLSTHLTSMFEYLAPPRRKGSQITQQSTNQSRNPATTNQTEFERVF
Chain of CDK9/Cyclin T1 complex (O60563 whole entry partner, species assumed): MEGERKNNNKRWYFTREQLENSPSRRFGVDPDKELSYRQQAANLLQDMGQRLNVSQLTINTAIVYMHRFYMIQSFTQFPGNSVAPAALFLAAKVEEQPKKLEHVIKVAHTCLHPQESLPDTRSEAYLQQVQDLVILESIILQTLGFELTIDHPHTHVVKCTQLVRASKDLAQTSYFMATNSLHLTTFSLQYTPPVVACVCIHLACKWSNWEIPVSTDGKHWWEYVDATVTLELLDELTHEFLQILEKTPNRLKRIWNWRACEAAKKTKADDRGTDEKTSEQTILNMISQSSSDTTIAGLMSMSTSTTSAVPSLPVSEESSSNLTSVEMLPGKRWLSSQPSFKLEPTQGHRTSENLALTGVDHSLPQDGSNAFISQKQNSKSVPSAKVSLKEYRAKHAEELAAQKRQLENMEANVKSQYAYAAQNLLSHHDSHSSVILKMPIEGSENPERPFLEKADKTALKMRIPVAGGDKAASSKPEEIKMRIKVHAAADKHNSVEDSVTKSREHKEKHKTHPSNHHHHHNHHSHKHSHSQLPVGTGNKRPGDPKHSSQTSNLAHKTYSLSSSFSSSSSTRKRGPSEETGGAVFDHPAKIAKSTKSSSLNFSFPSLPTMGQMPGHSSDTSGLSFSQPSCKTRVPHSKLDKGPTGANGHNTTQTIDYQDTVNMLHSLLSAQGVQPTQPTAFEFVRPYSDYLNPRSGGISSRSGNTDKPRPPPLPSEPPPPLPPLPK
Chain of CDK7/Cyclin H/MAT1 complex (P50613 whole entry, species assumed): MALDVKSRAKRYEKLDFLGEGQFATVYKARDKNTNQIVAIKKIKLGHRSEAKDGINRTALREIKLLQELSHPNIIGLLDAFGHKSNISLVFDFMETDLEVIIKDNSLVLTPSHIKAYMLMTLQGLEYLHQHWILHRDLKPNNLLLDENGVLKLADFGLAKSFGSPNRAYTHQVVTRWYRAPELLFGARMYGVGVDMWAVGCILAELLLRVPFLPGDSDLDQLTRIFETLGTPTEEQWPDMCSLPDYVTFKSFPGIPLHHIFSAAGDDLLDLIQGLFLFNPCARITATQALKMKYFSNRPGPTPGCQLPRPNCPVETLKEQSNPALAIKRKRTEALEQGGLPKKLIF
Chain of CDK7/Cyclin H/MAT1 complex (P51946 whole entry partner, species assumed): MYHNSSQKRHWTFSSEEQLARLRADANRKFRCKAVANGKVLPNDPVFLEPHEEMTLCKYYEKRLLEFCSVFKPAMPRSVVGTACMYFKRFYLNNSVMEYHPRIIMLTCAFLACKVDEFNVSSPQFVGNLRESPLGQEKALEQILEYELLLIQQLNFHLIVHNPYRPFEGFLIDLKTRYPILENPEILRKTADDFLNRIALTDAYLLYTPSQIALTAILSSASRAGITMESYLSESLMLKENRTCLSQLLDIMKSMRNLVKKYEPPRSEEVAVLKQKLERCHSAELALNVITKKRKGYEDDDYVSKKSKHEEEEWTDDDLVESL
Chain of CDK7/Cyclin H/MAT1 complex (P51948 whole entry partner, species assumed): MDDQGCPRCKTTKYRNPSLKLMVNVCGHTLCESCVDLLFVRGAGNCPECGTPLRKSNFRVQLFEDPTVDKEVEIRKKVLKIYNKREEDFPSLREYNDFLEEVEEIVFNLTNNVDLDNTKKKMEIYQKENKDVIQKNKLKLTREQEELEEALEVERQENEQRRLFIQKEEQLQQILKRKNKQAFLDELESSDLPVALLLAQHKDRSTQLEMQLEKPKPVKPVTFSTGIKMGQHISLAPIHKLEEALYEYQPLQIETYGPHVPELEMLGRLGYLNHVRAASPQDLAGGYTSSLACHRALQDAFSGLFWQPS

| Compound | IC50 [1] | IC50 [2] | IC50 [5] | IC50 [6] | IC50 ([1]; listed as 128) | IC50 ([2]; listed as 128) | IC50 ([5]; listed as 128) | IC50 ([6]; listed as 128) | IC50 ([3]; Homo sapiens, A673, 72 h) | IC50 ([4]; Homo sapiens, HCC70, 72 h) | IC50 [3] | IC50 [4] |
| --- | --- | --- | --- | --- | --- | --- | --- | --- | --- | --- | --- | --- |
| OC1CCC(c2cccc3c(-c4nc(N[C@H]5CCCNC5)ncc4C(F)(F)F)c[nH]c23)CC1 (some centres unmarked) [Compound 185] | 20 to 200 nM | 200 to 5000 nM | < 20 nM | 200 to 5000 nM | – | – | – | – | – | – | < 20 nM | < 100 nM |
| Cn1cc(-c2nc(NC3CCCNC3)ncc2C(F)(F)F)c2ccc(C#N)nc21 (centres unmarked) [Compound 273] | > 5000 nM | > 5000 nM | 200 to 5000 nM | > 5000 nM | – | – | – | – | 200 to 5000 nM | 1000 to 5000 nM | – | – |
| CN(C)S(=O)(=O)c1cccc2c(-c3nc(NC4CCCNC4)ncc3C(F)(F)F)c[nH]c12 (centres unmarked) [Compound 371] | 200 to 5000 nM | 200 to 5000 nM | < 20 nM | 200 to 5000 nM | – | – | – | – | – | < 100 nM | – | – |
| FC(F)Sc1ccc2c(-c3nc(N[C@H]4CCCNC4)ncc3C(F)(F)F)c[nH]c2c1 [Compound 374, 4-[6-(difluoromethylsulfanyl)-1H-indol-3-yl]-N-[(3S)-3-piperidyl]-5-(trifluoromethyl) pyrimidin-2-amine] | 200 to 5000 nM | 20 to 200 nM | < 20 nM | 200 to 5000 nM | – | – | – | – | – | < 100 nM | – | – |
| CC[C@]1(O)CCN(C(=O)c2ccc3c(-c4nc(N[C@H]5CCCNC5)ncc4C(F)(F)F)c[nH]c3c2)C1 (single isomer, unassigned) [Compound 347] | > 5000 nM | 200 to 5000 nM | 20 to 200 nM | > 5000 nM | – | – | – | – | – | 100 to 1000 nM | – | – |

The next lines start with results.

| IC50 [1] | IC50 [2] | IC50 [5] | IC50 [6] | IC50 ([1]; listed as 128) | IC50 ([2]; listed as 128) | IC50 ([5]; listed as 128) | IC50 ([6]; listed as 128) | Compound | IC50 ([3]; Homo sapiens, A673, 72 h) | IC50 ([4]; Homo sapiens, HCC70, 72 h) | IC50 [3] | IC50 [4] |
| --- | --- | --- | --- | --- | --- | --- | --- | --- | --- | --- | --- | --- |
| 200 to 5000 nM | 200 to 5000 nM | < 20 nM | 200 to 5000 nM | – | – | – | – | CCN1CCC[C@H](Nc2ncc(C(F)(F)F)c(-c3c[nH]c4cc(C#N)ccc34)n2)C1 [Compound 284] | 20 to 200 nM | 100 to 1000 nM | – | – |
| 200 to 5000 nM | 200 to 5000 nM | < 20 nM | 200 to 5000 nM | – | – | – | – | O=S(=O)(c1ccc2c(-c3nc(N[C@H]4CCCNC4)ncc3C(F)(F)F)c[nH]c2c1)C(F)F [Compound 375, 4-[6-(difluoromethylsulfonyl)-1H-indol-3-yl]-N-[(3S)-3-piperidyl]-5-(trifluoromethyl)pyrimidin-2-amine] | – | 100 to 1000 nM | – | – |
| > 5000 nM | > 5000 nM | 20 to 200 nM | > 5000 nM | – | – | – | – | CCP(=O)(CC)c1ccc2c(-c3nc(N[C@H]4CCCNC4)ncc3C(F)(F)F)c[nH]c2c1 [Compound 379] | – | 1000 to 5000 nM | – | – |
| 200 to 5000 nM | 200 to 5000 nM | < 20 nM | 200 to 5000 nM | – | – | – | – | FC(F)(F)c1cnc(N[C@H]2CCCNC2)nc1-c1c[nH]c2cc(-c3cnccn3)ccc12 [Compound 328] | – | – | – | < 100 nM |
| > 5000 nM | 200 to 5000 nM | 20 to 200 nM | > 5000 nM | > 5000 nM | > 5000 nM | > 5000 nM | > 5000 nM | N#Cc1ccc2c(-c3nc(N[C@@H]4CNC[C@@H](F)C4)ncc3C(F)(F)F)c[nH]c2c1 [Compound 368, 3-[2-[[(3S,5S)-5-fluoro-3-piperidyl]amino]-5-(trifluoromethyl)pyrimidin-4-yl]-1H-Indole-6-carbonitrile] | – | 1000 to 5000 nM | – | – |
| > 5000 nM | > 5000 nM | 20 to 200 nM | > 5000 nM | – | – | – | – | N#Cc1ccc2c(-c3nc(N[C@H]4CCCNC4)ncc3OC(F)F)c[nH]c2c1 [Compound 301, 3-[5-(difluoromethoxy)-2-[[(3S)-3-piperidyl]amino]pyrimidin-4-yl]-1H-indole-6-carbonitrile] | – | 1000 to 5000 nM | – | – |
